Test results taken from patent US8153805B2, “Biaryl derivatives” (Hoffmann-La Roche Inc., priority 2007, dated 2012).

Biological target: T1, human CCR2B (Homo sapiens, UniProt P41597)
T1 construct: host or cells: CHO-K1 (CHOK1-CCR2B-A5)
T1 sequence (P41597 1-360 isoform P41597-2): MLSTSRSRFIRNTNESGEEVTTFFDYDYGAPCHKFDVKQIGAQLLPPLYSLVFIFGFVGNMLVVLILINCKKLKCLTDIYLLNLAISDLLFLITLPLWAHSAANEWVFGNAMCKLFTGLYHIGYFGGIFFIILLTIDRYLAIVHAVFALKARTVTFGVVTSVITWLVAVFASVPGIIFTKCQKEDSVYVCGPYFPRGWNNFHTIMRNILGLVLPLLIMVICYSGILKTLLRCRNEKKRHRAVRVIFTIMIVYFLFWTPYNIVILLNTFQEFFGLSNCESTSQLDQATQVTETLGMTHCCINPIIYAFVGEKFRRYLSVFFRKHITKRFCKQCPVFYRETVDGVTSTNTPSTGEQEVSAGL
Assay: Calcium mobilization assay (FLIPR, MCP-1 stimulated CHOK1-CCR2B-A5 cells)
Assay type: cell-based
Settings: antagonist activity vs 20 nM MCP-1, CHOK1-CCR2B-A5 cells
Experimental: Calcium Mobilization Assay
CHOK1-CCR2B-A5 cells (from Euroscreen) stably overexpressing the human chemokine receptor 2 isoform B were cultured in Nutrient Hams F12 medium supplemented with 5% FBS, 100 U/ml penicillin, 100 μg/ml streptomycin, 400 μg/ml G418 and 5 μg/ml puromycin.
For the assay cells were grown overnight in 384-well black clear flat bottom polystyrene plates (Costar) at 37° C. at 5% CO2. After washing with DMEM, 20 mM Hepes, 2.5 mM probenecid, 0.1% BSA (DMEM assay buffer) cells were loaded with 4 μM Fluo-4 in the same DMEM assay buffer for 2 hours at 30° C. Excess dye was removed and cells were washed with DMEM assay buffer. 384-well compound plates were prepared with DMEM assay buffer/0.5% DMSO with or without various concentrations of test compounds. Usually compounds were tested for agonist and antagonist activity.
Test compounds were added to the assay plate and agonist activity was monitored as fluorescence for 80 seconds with a FLIPR (488 nm excitation; 510-570 nm emission; Molecular Devices). After 20-30 min. of incubation at 30° C., 20 nM MCP-1 (R&D; Roche) was added and fluorescence was monitored again for 80 seconds. Increases in intracellular calcium are reported as maximum fluorescence after agonist exposure minus basal fluorescence before exposure. Antagonist activity is indicated as inhibitor concentration required for 50% inhibition of specific calcium increases.

Row | IC50 [µM] | Compound
1 | 0.079 | Cc1cc(-c2cccc(OC(F)(F)F)c2)nc(C)c1C(=O)N1CCC(N2CCCC2)CC1 [Example 28, [2,4-Dimethyl-6-(3-trifluoromethoxy-phenyl)-pyridin-3-yl]-(4-pyrrolidin-1-yl-piperidin-1-yl)-methanone]
2 | 0.22 | O=C(c1c(F)cc(-c2cccc(OC(F)(F)F)c2)cc1F)N1CCC(N2CCCC2)CC1 [Example 40, (3,5-Difluoro-3′-trifluoromethoxy-biphenyl-4-yl)-(4-pyrrolidin-1-yl-piperidin-1-yl)-methanone]
3 | 0.27 | Cc1cc(-c2cncc(C(F)(F)F)c2)cc(C)c1C(=O)N1CCC(N2CCC(O)CC2)CC1 [Example 24, [2,6-Dimethyl-4-(5-trifluoromethyl-pyridin-3-yl)-phenyl]-(4-hydroxy-[1,4′]bipiperidinyl-1′-yl)-methanone]
4 | 0.122 | O=C(c1ccc(-c2cccc(C(F)(F)F)c2)cc1Cl)N1CCC(N2CCCC2)CC1 [Example 46, (3-Chloro-3′-trifluoromethyl-biphenyl-4-yl)-(4-pyrrolidin-1-yl-piperidin-1-yl)-methanone]
5 | 0.016 | Cc1cc(-c2cccc(C(F)(F)F)c2)cc(-c2cccnc2)c1C(=O)N1CCC(N2CCCC2)CC1 [Example 48, (5-Methyl-3-pyridin-3-yl-3′ trifluoromethyl-biphenyl-4-yl)-(4-pyrrolidin-1-yl-piperidin-1-yl)-methanone]
6 | 0.06 | Cc1cc(-c2cccc(OC(F)(F)F)c2)cc(C)c1C(=O)N1CCC(N2CCCC2)CC1 [Example 1, (3,5-Dimethyl-3′-trifluoromethoxy-biphenyl-4-yl)-(4-pyrrolidin-1-yl-piperidin-1-yl)-methanone]
7 | 0.012 | Cc1cc(-c2cccc(C(F)(F)F)c2)cc(-c2cncnc2)c1C(=O)N1CCC(N2CCCC2)CC1 [Example 47, (5-Methyl-3-pyrimidin-5-yl-3′-trifluoromethyl-biphenyl-4-yl)-(4-pyrrolidin-1-yl-piperidin-1-yl)-methanone]
8 | 0.089 | O=C(c1c(F)cc(-c2cccc(C(F)(F)F)c2)cc1F)N1CCC(N2CCCC2)CC1 [Example 39, (3,5-Difluoro-3′-trifluoromethyl-biphenyl-4-yl)-(4-pyrrolidin-1-yl-piperidin-1-yl)-methanone]
9 | 0.082 | COc1nc(-c2cccc(C(F)(F)F)c2)cc(C)c1C(=O)N1CCC(N2CCCC2)CC1 [Example 50, [2-Methoxy-4-methyl-6-(3-trifluoromethyl-phenyl)-pyridin-3-yl]-(4-pyrrolidin-1-yl-piperidin-1-yl)-methanone]
10 | 0.048 | Cc1cc(-c2cccc(C(F)(F)F)c2)cc(O)c1C(=O)N1CCC(N2CCCC2)CC1 [Example 45, (3-Hydroxy-5-methyl-3′-trifluoromethyl-biphenyl-4-yl)-(4-pyrrolidin-1-yl-piperidin-1-yl)-methanone]
11 | 0.011 | Cc1cc(-c2cccc(C(F)(F)F)c2)nc(OCCO)c1C(=O)N1CCC(N2CCCC2)CC1 [Example 53, [2-(2-Hydroxy-ethoxy)-4-methyl-6-(3-trifluoromethyl-phenyl)-pyridin-3-yl]-(4-pyrrolidin-1-yl-piperidin-1-yl)-methanone]
12 | 0.24 | Cc1cc(-c2cncc(C(F)(F)F)c2)nc(C)c1C(=O)N1CCC(N2CCCC2)CC1 [Example 42, (4,6-Dimethyl-5′-trifluoromethyl-[2,3′]bipyridinyl-5-yl)-(4-pyrrolidin-1-yl-piperidin-1-yl)-methanone]
13 | 0.19 | Cc1nc(-c2cccc(C(F)(F)F)c2)nc(C)c1C(=O)N1CCC(N2CCCC2)CC1 [Example 13, [4,6-Dimethyl-2-(3-trifluoromethyl-phenyl)-pyrimidin-5-yl]-(4-pyrrolidin-1-yl-piperidin-1-yl)-methanone]
14 | 0.15 | Cc1cc(-c2cccc(OC(F)(F)F)c2)nc(C)c1C(=O)N1CCC(N2CCC[C@H]2CO)CC1 [Example 29, [2,4-Dimethyl-6-(3-trifluoromethoxy-phenyl)-pyridin-3-yl]-[4-((S)-2-hydroxymethyl-pyrrolidin-1-yl)-piperidin-1-yl]-methanone]
15 | 0.055 | Cc1cc(-c2cccc(C(F)(F)F)c2)cc(C)c1C(=O)N1CCC(N2CCC(O)CC2)CC1 [Example 22, (3,5-Dimethyl-3′-trifluoromethyl-biphenyl-4-yl)-(4-hydroxy-[1,4′]bipiperidinyl-1′-yl)-methanone]
16 | 0.021 | Cc1cc(-c2cccc(C(F)(F)F)c2)nc(C)c1C(=O)N1CCC(N2CCCC2)CC1 [Example 27, [2,4-Dimethyl-6-(3-trifluoromethyl-phenyl)-pyridin-3-yl]-(4-pyrrolidin-1-yl-piperidin-1-yl)-methanone]
17 | 0.43 | Cc1cc(-c2cccc(OC(F)(F)F)c2)ccc1C(=O)N1CCC(N2CCCC2)CC1 [Example 6, (3-Methyl-3′-trifluoromethoxy-biphenyl-4-yl)-(4-pyrrolidin-1-yl-piperidin-1-yl)-methanone]
18 | 0.048 | Cc1cc(-c2cncc(C(F)(F)F)c2)cc(C)c1C(=O)N1CCC(N2CCC[C@H]2CO)CC1 [Example 14, [2,6-Dimethyl-4-(5-trifluoromethyl-pyridin-3-yl)-phenyl]-[4-((S)-2-hydroxymethyl-pyrrolidin-1-yl)-piperidin-1-yl]-methanone]
19 | 0.039 | Cc1cc(-c2cccc(OC(F)(F)F)c2)cc(C)c1C(=O)N1CCC(N2CCC[C@H]2CO)CC1 [Example 10, (3,5-Dimethyl-3′-trifluoromethoxy-biphenyl-4-yl)-[4-((S)-2-hydroxymethyl-pyrrolidin-1-yl)-piperidin-1-yl]-methanone]
20 | 0.49 | Cc1nc(-c2cccc(C(F)(F)F)c2)nc(C2CC2)c1C(=O)N1CCC(N2CCCC2)CC1 [Example 18, [4-Cyclopropyl-6-methyl-2-(3-trifluoromethyl-phenyl)-pyrimidin-5-yl]-(4-pyrrolidin-1-yl-piperidin-1-yl)-methanone]
21 | 0.31 | Cc1nc(-c2cccc(C(F)(F)F)c2)nc(C)c1C(=O)N1CCC(N2CCC[C@H]2CO)CC1 [Example 16, [4,6-Dimethyl-2-(3-trifluoromethyl-phenyl)-pyrimidin-5-yl]-[4-((S)-2-hydroxymethyl-pyrrolidin-1-yl)-piperidin-1-yl]-methanone]
22 | 0.009 | Cc1cc(-c2cccc(C(F)(F)F)c2)cc(C)c1C(=O)N1CCC(N2CCC[C@H]2CO)CC1 [Example 9, (3,5-Dimethyl-3′-trifluoromethyl-biphenyl-4-yl)-[4-((S)-2-hydroxymethyl-pyrrolidin-1-yl)-piperidin-1-yl]-methanone]
23 | 0.021 | Cc1cc(-c2cccc(C(F)(F)F)c2)cc(C)c1C(=O)N1CCC(N2CCCC2)CC1 [Example 2, (3,5-Dimethyl-3′-trifluoromethyl-biphenyl-4-yl)-(4-pyrrolidin-1-yl-piperidin-1-yl)-methanone]
24 | 0.48 | Cc1cc(-c2cncc(C(F)(F)F)c2)nc(C)c1C(=O)N1CCC(N2CCC[C@H]2CO)CC1 [Example 43, (4,6-Dimethyl-5′-trifluoromethyl-[2,3′]bipyridinyl-5-yl)-[4-((S)-2-hydroxymethyl-pyrrolidin-1-yl)-piperidin-1-yl]-methanone]
25 | 0.99 | Cc1nc(-c2cccc(C(F)(F)F)c2)nc(C2CC2)c1C(=O)N1CCC(N2CCC[C@H]2CO)CC1 [Example 19, [4-Cyclopropyl-6-methyl-2-(3-trifluoromethyl-phenyl)-pyrimidin-5-yl]-[4-((S)-2-hydroxymethyl-pyrrolidin-1-yl)-piperidin-1-yl]-methanone]
26 | 0.067 | Cc1cc(-c2cccc(C(F)(F)F)c2)nc(C)c1C(=O)N1CCC(N2CCC[C@H]2CO)CC1 [Example 30, [2,4-Dimethyl-6-(3-trifluoromethyl-phenyl)-pyridin-3-yl]-[4-((S)-2-hydroxymethyl-pyrrolidin-1-yl)-piperidin-1-yl]-methanone]
27 | 0.076 | COc1cc(-c2cccc(C(F)(F)F)c2)cc(C)c1C(=O)N1CCC(N2CCCC2)CC1 [Example 44, (3-Methoxy-5-methyl-3′-trifluoromethyl-biphenyl-4-yl)-(4-pyrrolidin-1-yl-piperidin-1-yl)-methanone]
28 | 0.15 | Cc1cc(-c2cccc(C(F)(F)F)c2)ccc1C(=O)N1CCC(N2CCCC2)CC1 [Example 7, (3-Methyl-3′-trifluoromethyl-biphenyl-4-yl)-(4-pyrrolidin-1-yl-piperidin-1-yl)-methanone]
29 | 0.017 | Cc1cc(-c2cccc(C(F)(F)F)c2)nc(O)c1C(=O)N1CCC(N2CCCC2)CC1 [Example 51, [2-Hydroxy-4-methyl-6-(3-trifluoromethyl-phenyl)-pyridin-3-yl]-(4-pyrrolidin-1-yl-piperidin-1-yl)-methanone; 4-Methyl-3-(4-pyrrolidin-1-yl-piperidine-1-carbonyl)-6-(3-trifluoromethyl-phenyl)-1H-pyridin-2-one (tautomers)]
